Here are results for eleven compounds from ChEMBL document CHEMBL4028864 (J Med Chem, 2017).

Test [1] deals with T1, Protein deacetylase HDAC6 (Homo sapiens, UniProt Q9UBN7).
T1 sequence (Q9UBN7 whole entry): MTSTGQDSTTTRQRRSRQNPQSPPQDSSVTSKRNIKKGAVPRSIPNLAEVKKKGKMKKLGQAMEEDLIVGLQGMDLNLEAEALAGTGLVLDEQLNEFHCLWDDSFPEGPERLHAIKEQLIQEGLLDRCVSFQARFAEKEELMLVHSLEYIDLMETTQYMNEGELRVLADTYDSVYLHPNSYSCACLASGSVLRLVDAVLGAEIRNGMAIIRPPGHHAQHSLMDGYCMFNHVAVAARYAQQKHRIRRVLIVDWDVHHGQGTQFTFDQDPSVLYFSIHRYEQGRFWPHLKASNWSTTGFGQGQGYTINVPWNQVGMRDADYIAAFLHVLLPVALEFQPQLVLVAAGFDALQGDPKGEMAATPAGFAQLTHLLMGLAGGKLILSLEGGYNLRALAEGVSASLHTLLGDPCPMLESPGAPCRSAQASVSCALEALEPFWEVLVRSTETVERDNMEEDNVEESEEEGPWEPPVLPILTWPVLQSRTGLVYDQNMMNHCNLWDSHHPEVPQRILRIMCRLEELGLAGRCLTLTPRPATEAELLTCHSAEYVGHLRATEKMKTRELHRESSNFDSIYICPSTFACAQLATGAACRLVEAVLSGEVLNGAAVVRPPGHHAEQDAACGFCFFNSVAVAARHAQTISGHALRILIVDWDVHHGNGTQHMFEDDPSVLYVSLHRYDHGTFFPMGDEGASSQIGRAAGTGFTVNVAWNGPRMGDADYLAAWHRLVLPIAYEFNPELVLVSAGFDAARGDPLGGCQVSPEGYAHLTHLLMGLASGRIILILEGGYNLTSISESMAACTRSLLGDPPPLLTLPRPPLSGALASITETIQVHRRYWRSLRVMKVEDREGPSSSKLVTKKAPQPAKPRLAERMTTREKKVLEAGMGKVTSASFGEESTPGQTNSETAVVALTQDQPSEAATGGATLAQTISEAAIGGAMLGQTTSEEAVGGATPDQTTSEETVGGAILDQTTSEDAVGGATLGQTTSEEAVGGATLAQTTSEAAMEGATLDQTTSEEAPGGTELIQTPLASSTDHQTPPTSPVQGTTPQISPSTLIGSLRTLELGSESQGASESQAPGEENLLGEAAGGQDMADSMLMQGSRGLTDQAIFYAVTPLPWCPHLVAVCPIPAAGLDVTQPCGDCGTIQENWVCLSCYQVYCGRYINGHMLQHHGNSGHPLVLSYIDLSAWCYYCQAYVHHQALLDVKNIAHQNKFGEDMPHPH
Briefly: Inhibition of N-terminal GST tagged human HDAC6 (1 to 1215 residues) expressed in baculovirus infected insect cells using RHKKAc as substrate in presence of ATP.

Test [2] has as its target T2, Tyrosine-protein kinase JAK2 (Homo sapiens, UniProt O60674). Put plainly: Inhibition of human JAK2 using poly[Glu:Tyr] as substrate in presence of [gamma-33P]-ATP.
The target of test [3] is T2, Tyrosine-protein kinase JAK2. Put plainly: Binding affinity to N-terminal His tagged human recombinant JAK2 (1014 to 1132 residues) expressed in Escherichia coli after 60 to 90 mins by LC/MS analysis. The conditions noted are these: read-out: Kd(app).
In a further test the test system is MDA-MB-231. Put plainly: cells. It is filed as functional, cell-based. The settings on record: Homo sapiens, MDA-MB-231, 72 h.
In another test the test system is MCF7. Briefly: cells. The class given is functional, cell-based. The conditions noted are these: Homo sapiens, MCF7, 72 h.
A further test deals with HCT-116. Briefly: Antiproliferative activity against human HCT116 cells after 72 hrs by MTT assay. It is filed as functional, cell-based. The conditions noted are these: HCT-116, 72 h.
The next test has as its system PC-3. Put plainly: cells. It is filed as functional, cell-based. The settings on record: Homo sapiens, PC-3, 72 h.
A further test relates to KMS-12-BM. Briefly: cells. The class given is functional, cell-based. The conditions noted are these: Homo sapiens, 48 h.
A further test deals with MOLM-14. Put plainly: cells. The class given is functional, cell-based. The conditions noted are these: Homo sapiens, MOLM-14, 48 h.
Test [4] can be described thus: cells. The conditions noted are these: Homo sapiens, NKYS, 48 h. It is filed as functional, cell-based.
The nature of test [5]: cells. The settings on record: Homo sapiens, AC10, 24 h. The class given is ADME, cell-based.
A further test has as its target Histone deacetylase 1 (Homo sapiens, UniProt Q13547). Put plainly: Inhibition of C-terminal FLAG His tagged full length human recombinant HDAC1 (1 to 482 residues) expressed in baculovirus infected sf21 cells using RHKKAc as substrate in presence of ATP.
The subject of another test is HL-60. Briefly: Antiproliferative activity against human HL60 cells. The class given is functional, cell-based.
The subject of another test is HEL 92.1.7. Put plainly: cells. It is filed as functional, cell-based. The conditions noted are these: Homo sapiens, HEL 92.1.7, 36 h.
Another test concerns Jurkat. Briefly: cells. The class given is functional, cell-based. The conditions noted are these: Homo sapiens.

SMILES strings stand for the structures. Where only a bound is given, the exact number is not on record here.

T2 sequence (O60674 whole entry, the tested form may be a part): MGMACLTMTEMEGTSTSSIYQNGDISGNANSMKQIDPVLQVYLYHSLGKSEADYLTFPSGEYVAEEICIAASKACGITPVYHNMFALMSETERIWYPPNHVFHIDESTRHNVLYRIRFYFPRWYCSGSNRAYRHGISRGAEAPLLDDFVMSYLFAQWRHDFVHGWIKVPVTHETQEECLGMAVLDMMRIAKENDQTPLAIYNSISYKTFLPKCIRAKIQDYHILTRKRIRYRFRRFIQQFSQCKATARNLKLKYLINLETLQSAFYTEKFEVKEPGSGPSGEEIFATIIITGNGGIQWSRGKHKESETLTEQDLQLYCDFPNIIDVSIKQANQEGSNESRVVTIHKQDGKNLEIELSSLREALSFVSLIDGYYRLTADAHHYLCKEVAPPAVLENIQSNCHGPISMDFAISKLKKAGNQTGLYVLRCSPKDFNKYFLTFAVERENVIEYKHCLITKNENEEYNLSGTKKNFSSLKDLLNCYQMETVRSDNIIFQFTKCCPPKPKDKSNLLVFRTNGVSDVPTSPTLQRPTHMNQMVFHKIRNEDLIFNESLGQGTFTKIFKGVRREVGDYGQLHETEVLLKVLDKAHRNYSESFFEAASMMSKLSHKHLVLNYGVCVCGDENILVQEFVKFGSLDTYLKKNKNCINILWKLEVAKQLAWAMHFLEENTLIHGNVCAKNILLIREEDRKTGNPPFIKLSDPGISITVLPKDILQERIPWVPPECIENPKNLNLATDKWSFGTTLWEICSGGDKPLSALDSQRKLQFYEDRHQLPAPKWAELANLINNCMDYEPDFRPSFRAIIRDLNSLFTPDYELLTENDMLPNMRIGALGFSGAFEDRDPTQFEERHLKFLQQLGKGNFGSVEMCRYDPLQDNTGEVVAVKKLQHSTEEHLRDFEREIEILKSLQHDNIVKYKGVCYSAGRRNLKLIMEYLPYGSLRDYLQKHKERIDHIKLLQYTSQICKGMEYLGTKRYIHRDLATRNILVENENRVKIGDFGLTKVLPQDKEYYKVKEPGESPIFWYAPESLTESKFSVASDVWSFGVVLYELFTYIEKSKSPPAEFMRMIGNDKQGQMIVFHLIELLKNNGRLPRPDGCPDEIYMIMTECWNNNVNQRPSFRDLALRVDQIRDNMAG
Histone deacetylase 1, sequence (Q13547 whole entry, the tested form may be a part): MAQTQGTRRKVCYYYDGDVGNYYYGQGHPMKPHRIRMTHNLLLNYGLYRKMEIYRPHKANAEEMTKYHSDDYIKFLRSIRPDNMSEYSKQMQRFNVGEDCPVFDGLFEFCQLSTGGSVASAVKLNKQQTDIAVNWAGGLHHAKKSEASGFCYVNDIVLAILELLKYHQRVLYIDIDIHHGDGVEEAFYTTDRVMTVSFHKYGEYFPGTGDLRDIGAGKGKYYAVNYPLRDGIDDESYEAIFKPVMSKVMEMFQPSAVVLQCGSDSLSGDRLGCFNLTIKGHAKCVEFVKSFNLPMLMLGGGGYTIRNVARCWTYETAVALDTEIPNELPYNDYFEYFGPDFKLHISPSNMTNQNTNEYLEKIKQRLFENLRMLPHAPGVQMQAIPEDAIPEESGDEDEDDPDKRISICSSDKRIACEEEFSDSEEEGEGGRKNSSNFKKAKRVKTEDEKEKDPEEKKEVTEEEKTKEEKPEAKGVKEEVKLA

In the case of `O=C(CCCCCCC(=O)Nc1ccc(NC(=O)CCCn2cc(-c3ncnc4[nH]ccc34)cn2)cc1)NO`, the IC50 – broadly, the concentration that gives 50% inhibition – in test [1] was 0.55 µM; in test [2] it was 1.2 µM; with MDA-MB-231, above 100 µM; in the test on MCF7 it was above 100 µM; with HCT-116, above 100 µM; in the test with PC-3, above 100 µM. Also, in test [3], the Kd was determined as 2 µM.

Turning to `C1=N/C2=N/c3ccc(OCCN4CCCC4)c(c3)COC/C=C/COCc3cccc(c3)C(=C1)N2` [PACRITINIB], the IC50 worked out at 0.75 µM in the test on KMS-12-BM, 0.079 µM in the test on MOLM-14, 1.6 µM in “cells [4]” and 2.02 µM in “cells [5]”.

Regarding `O=C(CCCn1cc(-c2ncnc3[nH]ccc23)cn1)NO`, the IC50 in test [1] was 0.604 µM; in test [2] it was 3.56 µM; with MDA-MB-231, above 100 µM; in the test with MCF7, above 100 µM; with HCT-116, above 100 µM; in the test on PC-3, above 100 µM. In test [3], the Kd was 5 µM.

`O=C(CCCCCCCn1cc(-c2ncnc3[nH]ccc23)cn1)NO`: the half-maximal inhibitory concentration (IC50) at Histone deacetylase 1 worked out at 0.036 µM; in [1], 0.0018 µM; in test [2], 0.481 µM; in the test on MDA-MB-231 it was 12.9 µM; in the test with MCF7 it was 12.4 µM; with HCT-116, 11.8 µM. Besides, the IC50 with PC-3 was 12.9 µM. Besides, in test [3], the Kd amounted to 2 µM.

Regarding `CN1CCc2c(c3ccccc3n2Cc2ccc(C(=O)NO)cc2)C1` [TUBASTATIN A], the IC50 in the test with MDA-MB-231 is 10.4 µM; with MCF7, 3.7 µM; in the test on HCT-116, 2 µM; with PC-3, 8.6 µM; in the test on HL-60, above 4 µM; with HEL 92.1.7, above 4 µM. In the test with Jurkat, this compound displayed an IC50 above 4 µM.

Consider `O=C(CCCCCn1cc(-c2ncnc3[nH]ccc23)cn1)NO`, for which the IC50 on Histone deacetylase 1 was 0.138 µM; in test [1] it was 0.0029 µM; with MCF7, 8.16 µM; in the test on HCT-116 it was 8.99 µM; with PC-3, 18.8 µM.

Consider `O=C(CCCCCCCCCCn1cc(-c2ncnc3[nH]ccc23)cn1)NO`, for which the IC50 on Histone deacetylase 1 is 3.54 µM; in [1] it was 0.088 µM; in [2] it was 0.043 µM; in the test on MDA-MB-231, 12.9 µM; in the test on MCF7 it was 13.3 µM; with HCT-116 it was 41.1 µM. In the test with PC-3, the IC50 worked out at 54.3 µM. In [3], the Kd was below 1 µM.

For `O=C(CCCCCCC(=O)Nc1ccc(CCCn2cc(-c3ncnc4[nH]ccc34)cn2)cc1)NO`, the IC50 at Histone deacetylase 1 was 0.265 µM; in test [1], 0.0009 µM; in test [2], 0.865 µM; with MDA-MB-231, 70 µM; in the test with MCF7, above 50 µM; with HCT-116 it was 23 µM. In addition, in the test on PC-3, the IC50 was above 50 µM. For the same compound, the Kd in test [3] was determined as 2 µM.

As to `O=C(CCCCCCC(=O)Nc1ccccc1)NO` [VORINOSTAT], the IC50 in the test with HCT-116 was 1.85 µM.

Turning to `O=C(CCCCn1cc(-c2ncnc3[nH]ccc23)cn1)NO`, the IC50 on Histone deacetylase 1 is 0.854 µM; in test [1], 0.006 µM; with MDA-MB-231 it was 17.3 µM; in the test on MCF7 it was 12.8 µM; in the test with HCT-116, 46.2 µM; in the test with PC-3, above 100 µM.

Take `O=C(CCCCCCC(=O)Nc1ccc(NCCCn2cc(-c3ncnc4[nH]ccc34)cn2)cc1)NO`: the IC50 was determined as 0.11 µM on Histone deacetylase 1; 0.00014 µM in test [1]; 0.265 µM in test [2]; 25.5 µM with MDA-MB-231; 15.2 µM in the test with MCF7; 19.4 µM in the test on HCT-116. Also, the IC50 with PC-3 was 23.9 µM; with HL-60, above 10 µM; in the test with HEL 92.1.7 it was above 4 µM; with Jurkat, 4 µM. Moreover, in test [3], the Kd was 1 µM.
